One test relates to LDL receptor protein. The test can be described thus: Expression of LDL receptor protein in liver of endogenous hyperlipemia rabbit (immunoblotting). The following applies: casein diet. The class given is in vivo. On the procedure: For the rabbit used in Example 2, liver was taken out after one day of a final administration of the agent. A homogenizing buffer (20 mM Tris-HCl (pH 8.0), 1 mM CaCl2, 150 mM NaCl, a mix of protease inhibitor) was added to a part of this liver and the mixture was homogenized and centrifuged at 8000×g, 4° C. for 10 min., thereafter the supernatant was ultracentrifuged at […], 4° C. for 60 min. The resulting precipitate was washed by adding the homogenizing buffer and centrifuging at 10,000×g, 4° C. for 30 min., and thereafter was suspended in a suspension buffer (125 mM Tris-maleate (pH 6.8), 1 mM CaCl2, 160 mM NaCl, 1% (w/v) Triton X-100, Protease inhibitor (Complete™, Boehringer Ingelhaim Co., Ltd., Ingelheim, Germany)) to prepare a fraction of the liver membrane. After mixing with a buffer (125 mM Tris-HCl (pH 6.8), 20% (v/v) glycerol, 4% (w/v) sodium dodecyl sulfate (hereinafter, referred to as SDS) and 0.001% (w/v) bromophenol blue), the fraction was subjected to SDS polyacrylamide electrophoresis (using a 7.5% polyacrylamide gel), and the resultant was transferred to a polyvinylidene difluoride (PVDF) membrane and then the amount of LDL receptor protein was evaluated by an immunoblotting using anti-LDL receptor antibody. […]

A further test deals with HepG2 cell. The test can be described thus: LDL binding, uptake and degradation activity in cultured human hepatic cell line HepG2 ([125I]LDL). The following applies: for Binding Amounts / Degradation Amounts / Uptake Amounts: mean ± standard error, 6 experiments. The class given is cell-based. On the procedure:
The cultured human hepatic cell line HepG2 cell was purchased from the Dainippon Pharmaceuticals Co. Ltd. (Osaka, Japan). The determinations of LDL binding, uptake and degradation activity were performed according to a prior report (Method in Enzymology, 98, 241-255, 1983). Cells were seeded in a 24 well plate and were incubated in the Dulbecco's modified Eagle/F-12 (DMEM/F-12) medium containing 10% fetal bovine serum and antibiotics at 37° C. for two days. After washing the cells, a DMEM/F-12 medium containing 10% lipoprotein-removed serum, the test substrate and the antibiotics was added and the cells were incubated at 37° C. for 19 hours. After adding [^125I]LDL, the cells were incubated at 37° C. for another 5 hours. The culture supernatant was collected and trichloroacetic acid was added thereto, and then it was statically kept for 30 minutes or more at 4° C. After centrifuging (700×g, 4° C., 15 min.), the supernatant was separated and sodium iodide was added thereto, and further hydrogen peroxide was added. After treating the mixture at room temperature for 5 min., chloroform was added and the mixture was stirred. After centrifuging (700×g, 4° C., 5 min.), the radioactivity in the supernatant was measured by a gamma counter, and then the data thus obtained was evaluated as an amount of degradation of LDL. Separately, after washing the cells thoroughly, a dissociation buffer (50 mM NaCl, 10 mM 2-[4-(2-hydroxyethyl)-1-piperadinyl]ethane sulfonic acid (HEPES, pH 7.4), 10 mg/mL heparin) was added and then the cells were statically kept at 4° C. for 60 min. or more. […] Furthermore, 1N sodium hydroxide was added to the remaining cells and the mixture was reacted for more than 10 min. to dissolve the cells. […] On the other hand, the amounts of non-specific degradation, binding and uptake were evaluated by coexisting an excess of non-labeled LDL on addition of [^125I] LDL, while the amounts of specific degradation, binding and uptake were obtained by subtracting the amounts of non-specific degradation, binding and uptake from the total amounts of degradation, binding and uptake and further calibrating with the amounts of protein.

The test system of test [1] is rabbit with endogenous hyperlipemia caused by a casein diet load. The test can be described thus: Blood cholesterol lowering action in endogenous hyperlipemia rabbit (casein diet). Type of test: in vivo, New Zealand White rabbit. The procedure: 8 weeks old male New Zealand White rabbit were bred for 12 days with ad libitum water and feeding conditions (rabbit·guinea pig breeding feed RC4, Oriental Yeast Co., Ltd., Tokyo, Japan). Thereafter, the diet was replaced with the casein diet containing 27% casein (Oriental Yeast Co., Ltd., Tokyo, Japan), and then the restricted feeding to the 100 g per 3 kg weight was performed for one week. At this point, the blood was collected via auricular veins and the plasma total cholesterol amounts was measured and then these rabbits were divided such that the mean of the weight and the plasma total cholesterol were equal approximately. […] Each agent was dissolved in propylene glycol containing 0.5% polyoxyethylenesorbitan monooleate (Tween 80) and then these were administered orally. On the other hand, for control group, the solvent (propylene glycol comprising 0.5% Tween 80) was administered orally. At one day after final administration, the blood was collected and plasma total cholesterol was measured and also the lipoprotein was fractioned according to the differential ultracentrifugation method (Nobuhiro, Yamada, Yasushi Sato edit.: Study strategy of Arteriosclerotic+Hyperlipemia, 63-69, 1996, Shujunsha Co. Ltd.), and then the amounts of cholesterol in the fraction of LDL were measured. The amount of total cholesterol in plasma and the amount of cholesterol in LDL fraction were determined by using an automatic biochemical analyzer (Biochemical Analyzer CHEM 1, Bayer Corporation, NY, USA).

The conditions of test [2]: single agent; not reduced more even if the dosage is increased; cited from earlier work.
Where [3] appears, read: 1 mg/kg orally for 3 weeks, mean ± standard error.

Structures are written as SMILES.

The text below walks through data of US20070099891A1, “Medicinal compositions and combinations” (priority 2003, published 2007).

For `CC(C)c1c(C(=O)Nc2ccccc2)c(-c2ccccc2)c(-c2ccc(F)cc2)n1CC[C@@H](O)C[C@@H](O)CC(=O)O` [Atorvastatin, atorvastatin, reference compound], in the test with LDL receptor protein (atorvastatin 1 and 3 mg/kg), the “amount of the expression of LDL receptor protein in liver (in words, FIG. 1)” value is “increased”. Also, the “Binding Amounts” value in the test with HepG2 cell (single agent 0.1 μM) amounted to 81.7 ± 2.1 ng/mg protein; in the test on HepG2 cell (single agent 1 μM), 86.3 ± 2.7 ng/mg protein; with HepG2 cell (single agent 10 μM) it was 95.5 ± 4.0 ng/mg protein. Also, the “Degradation Amounts” value was determined as 800.9 ± 32.5 ng/mg protein in the test with HepG2 cell (single agent 0.1 μM), 1000.5 ± 62.9 ng/mg protein in the test with HepG2 cell (single agent 1 μM) and 1062.3 ± 66.0 ng/mg protein in the test with HepG2 cell (single agent 10 μM).
With `CCCCn1c(=O)c(NC(=O)Nc2c(C(C)C)cc(N)cc2C(C)C)c(-c2cccc(OCCCO)c2)c2cccnc21` [Compd. A, N-[1-butyl-4-[3-[3-(hydroxy)propoxy]phenyl]-1,2-dihydro-2-oxo-1,8-naphthyridine-3-yl]-N′-(2,6-diisopropyl-4-aminophenyl)urea], in the test on LDL receptor protein (compound A 1 mg/kg), the “amount of the expression of LDL receptor protein in liver (in words, FIG. 1)” value is reported as “increased”. For the same compound, in test [1] (setting [3]), the “plasma LDL cholesterol” value was 52 ± 9 mg/dL and the plasma total cholesterol is 108 ± 5 mg/dL. Further, the “plasma total cholesterol lowering action and plasma LDL cholesterol lowering action (in words)” value in test [1] (1 mg/kg, compared to control) is recorded as “significant effects”. Moreover, the “amounts of binding, uptake and degradation of LDL (in words)” value with HepG2 cell (compound A 0.01 to 1 μM) was “increased”. In the test on HepG2 cell (single agent 0.01 μM), the “Binding Amounts” value is on record as 85.2 ± 3.6 ng/mg protein, the “Degradation Amounts” value stood at 927.5 ± 90.0 ng/mg protein and the “Uptake Amounts” value is 852.9 ± 47.3 ng/mg protein. Besides, in the test on HepG2 cell (single agent 0.1 μM), the “Binding Amounts” value was 90.9 ± 4.1 ng/mg protein, the “Degradation Amounts” value was 1016.8 ± 45.3 ng/mg protein and the “Uptake Amounts” value is recorded as 886.4 ± 29.2 ng/mg protein. In the test with HepG2 cell (single agent 1 μM), the “Binding Amounts” value was 93.7 ± 2.5 ng/mg protein, the “Degradation Amounts” value came out at 1126.3 ± 70.3 ng/mg protein and the “Uptake Amounts” value is 1172.2 ± 46.2 ng/mg protein.
Take `O=C1[C@H](CC[C@H](O)c2ccc(F)cc2)[C@@H](c2ccc(O)cc2)N1c1ccc(F)cc1` [ezetimibe, 1-(4-fluorophenyl)-3(R)-[3-(4-fluorophenyl)-3(S)-hydroxypropyl]-4(S)-(4-hydroxyphenyl)-2-azetidinone]: the “degree of lowering of LDL cholesterol” value in test [2] was 15 to 20%.
